For data set [1], the system named is ENR+CD organoids (ISC to Paneth cell differentiation). Description: Secondary (validation) screen: LYZ.S CCh-stimulated lysozyme secretion, 2.5-D 384-well ENR+CD organoids. The data set is classed as cell-based, mouse. Particulars: for Dose.FC.LYZ.S: 6-day ENR+CD, vs ENR+CD+DMSO.
Data set [2] concerns lysozyme (LYZ) in intestinal organoids. The data set can be described thus: Western blotting of lysozyme in 3D-cultured intestinal organoids. Particulars: ENR+CV, ENR+CD or ENR, 6 days. Format: cell-based, mouse. The text has this: Western blotting. ISC-enriched organoids cultured in 3D Matrigel with ENRCV media were passaged to 24-well plate in 3D Matrigel with ENRCV. At day zero, media were replaced to ENR or ENRCD with or without indicated compounds, and media were replaced every other day. At day six, cells were harvested from Matrigel by mechanical disruption and suspended in basal media. Cell pellets were lysed with Pierce® IP lysis buffer (ThermoFisher, 87787) containing Halt™ Protease Inhibitor Cocktail, EDTA-Free (ThermoFisher, 87785) after 3-minute centrifuge at 300×g at 4° C. Cell extracts were resolved by NuPAGE® SDS-PAGE Gel system (ThermoFisher) and electroblotted onto polyvinylidene difluoride membranes using Criterion™ Blotter (Biorad). The membranes were blocked with 2% Blotting-Grade Blocker (Biorad, 1706404) in TBS-T (50 mM Tris-HCl, 150 mM NaCl, and 0.1% Tween 20, pH 8.0) and then probed with appropriate antibodies. Detection was performed using ECL Select™ Western Blotting Detection Reagent (Amersham, 45-000-999) and ImageQuant LAS4000 (GE Healthcare).
Western blotting. Organoid-containing gel was homogenized in basal medium and centrifuged at 300 rcf for 3 min. Organoid pellet was lysed with ice-cold Pierce IP Lysis Buffer (Thermo Fisher Scientific, #87787) containing Halt Protease Inhibitor Cocktail, EDTA-Free (Thermo Fisher Scientific, #87785) and incubated on ice for 20 min. The lysate was centrifuged at 17,000 rcf for 10 min, and the supernatant was combined with NuPAGE LDS Sample Buffer (Thermo Fisher Scientific, NP0007). Protein concentration was determined by Pierce 660 nm Protein Assay (Thermo Fisher Scientific, #22660) and normalized to the lowest concentration among each sample set. […] Chemiluminescent signals were detected by LAS4000 (GE Healthcare) using Amersham ECL Select Western Blotting Detection Reagent (GE Healthcare, #45-000-999), and total protein signals were obtained by Odyssey Imaging System (LI-COR Biosciences) using REVERT Total Protein Stain Kit (LI-COR Biosciences, #926-11010).
A general note: In western blotting, separated proteins are transferred to a membrane and probed.

The subject of the next data set is intestinal organoids. Description: Population RNA-sequencing of treated organoids. Format: cell-based, mouse. The protocol: Population RNA-sequencing. Population RNA-seq was performed using a derivative of the Smart-Seq2 protocol for single cells. In brief, organoid media was aspirated and RLT+BME (Qiagen) was added to each well, and plate shaken for 30 minutes to fully lyse. Lysate was aliquoted into 4 identical fractions and stored at −80° C. until reverse transcription. RNA lysate was thawed and cleaned with a 2.2×SPRI ratio using Agencourt RNAClean XP beads (Beckman Coulter, A63987). RNA-seq was performed on a bulk population of sorted basal cells using Smart-Seq2 chemistry, starting with a 2.2×SPRI ratio cleanup. After oligo-dT priming, Maxima H Minus Reverse Transcriptase (ThermoFisher EP0753) was used to synthesize cDNA with an elongation step at 52° C. before PCR amplification (15 cycles for tissue, 18 cycles for sorted basal cells) using KAPA HiFi PCR Mastermix (Kapa Biosystems KK2602). Sequencing libraries were prepared using the Nextera XT DNA tagmentation kit (Illumina FC-131-1096) with 250 pg input for each sample. Libraries were pooled post-Nextera and cleaned using Agencourt AMPure SPRI beads with successive 0.7× and 0.8× ratio SPRIs and sequenced with an Illumina 75 Cycle NextSeq500/550v2 kit (Illumina FC-404-2005) with loading density at […], with paired end 35 cycle read structure. Samples were sequenced at an average read depth of 8.44 million reads per sample and a total of 96 samples.
Organoid samples were aligned to the Mm10 genome and transcriptome using STAR and RSEM. […] For module scoring with the in vivo Paneth and enteroendocrine cell-defining genes, Applicants used previously published gene sets and computed per sample module scores through the Seurat package.

The subject of the next data set is ENR+CD organoids. Description: Primary screen: ATP (CellTiter-Glo 3D, CTG) cell number/viability, 2.5-D 384-well ENR+CD organoids.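 For all read-outs here: compounds given at plating and again on day 3 over a 6-day differentiation from ENR+CV stem-cell-enriched precursors, ATP measured on day 6, plate median as control.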 Particulars: for Dose.FC.CTG (log2 fold change): primary screen.

Structures are written as SMILES.

As to `O=C(/C=C\n1cnc(-c2cc(C(F)(F)F)cc(C(F)(F)F)c2)n1)NNc1cnccn1` [KPT-330], the Dose.FC.LYZ.S was −0.004 log2 fold change in data set [1] (0.02 uM), −0.077 log2 fold change in data set [1] (0.04 uM), 0.134 log2 fold change in data set [1] (0.08 uM) and 0.215 log2 fold change in data set [1] ([…]). Also, the “increase in stimulated LYZ secretion (LYZ.S) relative to ENR+CD control” value in data set [1] (validated dose-treatments, mean fold change vs ENR+CD+DMSO) is listed as 50-75%. Moreover, the “LYZ abundance per-mass protein (Western blot)” value in data set [2] is “appreciably increase LYZ abundance”. The “number of differentially expressed genes among hit compounds” value in the data set on intestinal organoids (ENR and ENR+CD) was “most differentially expressed genes”. In the data set on intestinal organoids (ENR+CV, ENR+CD or ENR), the “secretory cell gene set scores (Paneth, goblet, EEC) from bulk transcripts” value was “increase secretory cells (Paneth, goblet, and EEC)”. The “toxicity in primary screening” value with ENR+CD organoids (concentrations higher than 160 nM, 6 days) was “toxic”. In addition, the “Dose.FC.CTG (log2 fold change)” value is reported as 0.210 with ENR+CD organoids (dose 0.08 uM), −0.657 with ENR+CD organoids (dose 0.40 uM), −0.894 in the data set with ENR+CD organoids (dose 2.00 uM) and −1.876 in the data set on ENR+CD organoids (dose 10.00 uM).

These data come from patent publication US20220323406A1, “METHODS AND COMPOSITIONS FOR DIFFERENTIATING STEM CELLS” (Massachusetts Institute of Technology, priority 2019, published 2022).
